From the OligoGym collection come the findings set out here.

HELM strings list units from the 5' end as sugar, base in round brackets, then linkage (d deoxyribose, r ribose, m 2'-O-methyl, p phosphodiester). Strings are as the collection lists them, not checked against the first reports. ss, as = sense and antisense strand; [lna] = locked nucleic acid (LNA); [hna] = hexitol nucleic acid; [s4r] = 4'-thioribose; [fl2r] = 2'-fluoro
Also: test system not given here.

For the series the following is noted: siRNA.
“RNA1{[fl2r](A)p.r(G)p.[fl2r](C)p.r(C)p.[fl2r](U)p.r(C)p.[fl2r](C)p.r(A)p.[fl2r](A)p.r(A)p.[fl2r](C)p.r(U)p.[fl2r](C)p.r(C)p.[fl2r](U)p.r(A)p.[fl2r](G)p.r(C)p.[fl2r](U)p.r(T)p.r(T)}|RNA2{r(A)p.r(G)p.r(C)p.r(U)p.r(A)p.r(G)p.r(G)p.r(A)p.r(G)p.r(U)p.r(U)p.r(U)p.r(G)p.r(G)p.r(A)p.r(G)p.r(G)p.r(C)p.r(U)p.r(T)p.r(T)}$$$RNA1{StrandType:ss}|RNA2{StrandType:as}$” returned a target mRNA knockdown of 16%.

As for “RNA1{m(G)p.m(C)p.m(A)p.m(G)p.m(C)p.m(A)p.m(C)p.m(G)p.m(A)p.m(C)p.m(U)p.m(U)p.m(C)p.m(U)p.m(U)p.m(C)p.m(A)p.m(A)p.m(G)p.r(T)p.r(T)}|RNA2{r(C)p.r(U)p.r(U)p.r(G)p.r(A)p.r(A)p.r(G)p.r(A)p.r(A)p.r(G)p.r(U)p.r(C)p.r(G)p.r(U)p.r(G)p.r(C)p.r(U)p.r(G)p.r(C)p.r(T)p.r(T)}$$$RNA1{StrandType:ss}|RNA2{StrandType:as}$”, the target mRNA knockdown amounted to 25%.

As to “RNA1{r(G)p.r(A)p.r(C)p.r(G)p.[hna](U)p.r(A)p.r(A)p.[hna](A)p.r(C)p.r(G)p.[hna](G)p.r(C)p.r(C)p.[hna](A)p.r(C)p.r(A)p.r(A)p.r(G)p.[hna](U)p.[hna](U)p.d(T)}|RNA2{r(A)p.r(C)p.[hna](U)p.r(U)p.r(G)p.r(U)p.r(G)p.r(G)p.r(C)p.r(C)p.r(G)p.r(U)p.r(U)p.r(U)p.r(A)p.r(C)p.r(G)p.[hna](U)p.[hna](C)p.[hna](G)p.d(T)}$$$RNA1{StrandType:ss}|RNA2{StrandType:as}$”, the target mRNA knockdown came to 51.4%.

As to “RNA1{r(A)p.r(A)p.r(G)p.m(G)p.m(A)p.r(G)p.r(A)p.r(U)p.m(C)p.m(A)p.m(A)p.r(C)p.r(A)p.r(U)p.m(U)p.m(U)p.r(U)p.r(C)p.r(A)p.r(T)p.r(T)}|RNA2{m(U)p.m(G)p.m(A)p.r(A)p.r(A)p.m(A)p.m(U)p.m(G)p.r(U)p.r(U)p.r(G)p.m(A)p.m(U)p.m(C)p.r(U)p.r(C)p.m(C)p.m(U)p.m(U)p.r(T)p.r(T)}$$$RNA1{StrandType:ss}|RNA2{StrandType:as}$”, the target mRNA knockdown stood at 38%.

On to “RNA1{r(A)p.m(C)p.m(A)p.r(G)p.r(A)p.r(A)p.r(A)p.r(G)p.m(A)p.r(G)p.r(U)p.r(U)p.r(C)p.r(G)p.r(A)p.r(G)p.r(G)p.r(A)p.r(G)p.r(T)p.r(T)}|RNA2{r(C)p.r(U)p.r(C)p.r(C)p.r(U)p.r(C)p.r(G)p.r(A)p.r(A)p.r(C)p.r(U)p.r(C)p.r(U)p.r(U)p.r(U)p.r(C)p.m(U)p.r(G)p.r(U)p.r(T)p.r(T)}$$$RNA1{StrandType:ss}|RNA2{StrandType:as}$”, for which the target mRNA knockdown is 61%.

Regarding “RNA1{m(C)p.r(G)p.m(G)p.r(A)p.m(U)p.r(C)p.m(U)p.r(A)p.m(C)p.r(A)p.m(C)p.r(C)p.m(U)p.r(U)p.m(C)p.r(A)p.m(A)p.r(G)p.m(A)p.r(T)p.r(T)}|RNA2{m(U)p.r(C)p.m(U)p.m(U)p.r(G)p.r(A)p.r(A)p.r(G)p.r(G)p.m(U)p.r(G)p.m(U)p.r(A)p.r(G)p.r(A)p.m(U)p.r(C)p.r(C)p.r(G)p.r(T)p.r(T)}$$$RNA1{StrandType:ss}|RNA2{StrandType:as}$”, the target mRNA knockdown came out at 29%.

In turn, “RNA1{[s4r](C)p.[s4r](G)p.[s4r](U)p.[s4r](A)p.[s4r](C)p.[s4r](G)p.r(C)p.r(G)p.r(G)p.r(A)p.r(A)p.r(U)p.r(A)p.[s4r](C)p.[s4r](U)p.[s4r](U)p.[s4r](C)p.[s4r](G)p.[s4r](A)p.r(T)p.r(T)}|RNA2{r(G)p.r(C)p.r(G)p.r(A)p.r(A)p.r(G)p.r(U)p.r(A)p.r(U)p.r(U)p.r(C)p.r(C)p.r(G)p.r(C)p.r(G)p.r(U)p.r(A)p.[s4r](C)p.[s4r](G)p.r(T)p.r(T)}$$$RNA1{StrandType:ss}|RNA2{StrandType:as}$” came in with a target mRNA knockdown of 74.2%.

In turn, “RNA1{[s4r](A)p.[s4r](A)p.[s4r](A)p.[s4r](C)p.r(A)p.r(U)p.r(G)p.r(C)p.r(A)p.r(G)p.r(A)p.r(A)p.r(A)p.r(A)p.r(U)p.r(G)p.r(C)p.r(U)p.r(G)p.r(T)p.r(T)}|RNA2{r(C)p.r(A)p.r(G)p.r(C)p.r(A)p.r(U)p.r(U)p.r(U)p.r(U)p.r(C)p.r(U)p.r(G)p.r(C)p.r(A)p.r(U)p.[s4r](G)p.[s4r](U)p.[s4r](U)p.[s4r](U)p.r(T)p.r(T)}$$$RNA1{StrandType:ss}|RNA2{StrandType:as}$” yielded a target mRNA knockdown of 80.7%.

For “RNA1{r(A)p.r(G)p.r(U)p.m(U)p.r(A)p.r(A)p.r(C)p.r(C)p.r(C)p.r(G)p.r(G)p.r(G)p.r(A)p.r(C)p.r(U)p.r(U)p.r(G)p.r(G)p.r(A)p.r(T)p.r(T)}|RNA2{r(U)p.r(C)p.m(C)p.r(A)p.r(A)p.r(G)p.r(U)p.r(C)p.r(C)p.r(C)p.r(G)p.r(G)p.r(G)p.r(U)p.r(U)p.r(A)p.r(A)p.r(C)p.r(U)p.r(T)p.r(T)}$$$RNA1{StrandType:ss}|RNA2{StrandType:as}$”, the target mRNA knockdown is 91%.

The substance “RNA1{m(G)p.r(G)p.m(A)p.r(G)p.m(C)p.r(U)p.m(A)p.r(G)p.m(A)p.r(C)p.m(G)p.r(G)p.m(G)p.r(U)p.m(A)p.r(C)p.m(G)p.r(A)p.r(G)p.r(T)p.r(T)}|RNA2{r(C)p.r(U)p.r(C)p.r(G)p.r(U)p.r(A)p.r(C)p.r(C)p.r(C)p.r(G)p.r(U)p.r(C)p.r(U)p.r(A)p.r(G)p.r(C)p.r(U)p.r(C)p.r(C)p.r(T)p.r(T)}$$$RNA1{StrandType:ss}|RNA2{StrandType:as}$” returned a target mRNA knockdown of 75%.

In turn, “RNA1{m(A)p.m(A)p.r(C)p.r(C)p.r(C)p.m(A)p.r(C)p.r(C)p.m(A)p.r(C)p.m(A)p.r(G)p.r(C)p.r(U)p.m(A)p.r(G)p.m(A)p.m(A)p.r(C)p.m(U)p.m(U)}|RNA2{r(A)p.r(A)p.r(G)p.r(U)p.r(U)p.r(C)p.r(U)p.r(A)p.r(G)p.r(C)p.r(U)p.r(G)p.r(U)p.r(G)p.r(G)p.r(U)p.r(G)p.r(G)p.r(G)p.r(U)p.r(U)}$$$RNA1{StrandType:ss}|RNA2{StrandType:as}$” had a target mRNA knockdown of 42%.

For the substance “RNA1{r(G)p.r(A)p.r(C)p.r(G)p.[hna](U)p.r(A)p.r(A)p.[hna](A)p.r(C)p.r(G)p.[hna](G)p.r(C)p.r(C)p.[hna](A)p.r(C)p.r(A)p.r(A)p.r(G)p.r(U)p.r(U)p.d(T)}|RNA2{r(A)p.[hna](C)p.r(U)p.r(U)p.r(G)p.r(U)p.r(G)p.r(G)p.[hna](C)p.r(C)p.r(G)p.r(U)p.r(U)p.r(U)p.r(A)p.r(C)p.r(G)p.[hna](U)p.[hna](C)p.[hna](G)p.d(T)}$$$RNA1{StrandType:ss}|RNA2{StrandType:as}$”, the target mRNA knockdown is 0%.

As for “RNA1{[lna](G)p.r(G)p.r(A)p.r(U)p.r(G)p.r(A)p.r(G)p.r(G)p.r(A)p.r(A)p.r(G)p.r(G)p.r(C)p.r(A)p.r(A)p.r(U)p.r(U)p.r(U)p.r(A)p.[lna](T)p.[lna](T)}|RNA2{r(U)p.r(A)p.r(A)p.r(A)p.r(U)p.r(U)p.r(G)p.r(C)p.r(C)p.r(U)p.r(U)p.r(C)p.r(C)p.r(U)p.r(C)p.r(A)p.r(U)p.r(C)p.r(C)p.[lna](T)p.[lna](T)}$$$RNA1{StrandType:ss}|RNA2{StrandType:as}$”, the target mRNA knockdown is 50%.

The substance “RNA1{m(A)p.r(C)p.m(G)p.r(U)p.m(C)p.r(A)p.m(C)p.r(C)p.m(G)p.r(A)p.m(G)p.r(G)p.m(A)p.r(G)p.m(A)p.r(A)p.m(G)p.r(U)p.m(A)p.r(T)p.r(T)}|RNA2{r(U)p.r(A)p.r(C)p.r(U)p.r(U)p.r(C)p.r(U)p.r(C)p.r(C)p.r(U)p.r(C)p.m(G)p.m(G)p.r(U)p.r(G)p.r(A)p.r(C)p.m(G)p.r(U)p.r(T)p.r(T)}$$$RNA1{StrandType:ss}|RNA2{StrandType:as}$” gave a target mRNA knockdown of 31%.

Substance “RNA1{m(C)p.r(G)p.m(A)p.r(G)p.m(U)p.r(G)p.m(U)p.r(C)p.m(U)p.r(A)p.m(A)p.r(C)p.m(G)p.r(G)p.m(G)p.r(A)p.m(G)p.r(C)p.m(C)p.r(T)p.r(T)}|RNA2{r(G)p.r(G)p.r(C)p.r(U)p.r(C)p.r(C)p.r(C)p.r(G)p.r(U)p.r(U)p.r(A)p.r(G)p.r(A)p.r(C)p.r(A)p.r(C)p.r(U)p.r(C)p.r(G)p.r(T)p.r(T)}$$$RNA1{StrandType:ss}|RNA2{StrandType:as}$” displayed a target mRNA knockdown of 25%.

Substance “RNA1{r(A)p.r(G)p.r(A)p.r(G)p.r(U)p.m(U)p.r(G)p.r(G)p.r(G)p.r(A)p.r(U)p.m(U)p.r(A)p.r(G)p.r(G)p.r(G)p.r(C)p.r(U)p.r(U)p.r(T)p.r(T)}|RNA2{r(A)p.r(A)p.r(G)p.r(C)p.r(C)p.r(C)p.m(U)p.r(A)p.r(A)p.r(U)p.r(C)p.r(C)p.m(C)p.r(A)p.r(A)p.r(C)p.r(U)p.r(C)p.r(U)p.r(T)p.r(T)}$$$RNA1{StrandType:ss}|RNA2{StrandType:as}$” returned a target mRNA knockdown of 68%.

Take “RNA1{r(C)p.r(G)p.r(U)p.r(A)p.r(C)p.r(G)p.r(C)p.r(G)p.r(G)p.r(A)p.r(A)p.r(U)p.r(A)p.r(C)p.r(U)p.r(U)p.r(C)p.r(G)p.r(A)p.r(T)p.r(T)}|RNA2{r(U)p.r(C)p.r(G)p.r(A)p.r(A)p.r(G)p.r(U)p.r(A)p.r(U)p.r(U)p.r(C)p.r(C)p.r(G)p.r(C)p.r(G)p.[s4r](U)p.[s4r](A)p.[s4r](C)p.[s4r](G)p.r(T)p.r(T)}$$$RNA1{StrandType:ss}|RNA2{StrandType:as}$”: the target mRNA knockdown came to 85.6%.

In the case of “RNA1{[s4r](C)p.[s4r](G)p.[s4r](U)p.[s4r](A)p.r(C)p.r(G)p.r(C)p.r(G)p.r(G)p.r(A)p.r(A)p.r(U)p.r(A)p.r(C)p.r(U)p.[s4r](U)p.[s4r](C)p.[s4r](G)p.[s4r](A)p.r(T)p.r(T)}|RNA2{[s4r](U)p.[s4r](C)p.[s4r](G)p.[s4r](A)p.r(A)p.r(G)p.r(U)p.r(A)p.r(U)p.r(U)p.r(C)p.r(C)p.r(G)p.r(C)p.r(G)p.[s4r](U)p.[s4r](A)p.[s4r](C)p.[s4r](G)p.r(T)p.r(T)}$$$RNA1{StrandType:ss}|RNA2{StrandType:as}$”, the target mRNA knockdown amounted to 0%.

Turning to “RNA1{r(G)p.r(U)p.r(U)p.r(C)p.r(A)p.r(C)p.r(G)p.r(U)p.r(C)p.r(C)p.r(U)p.r(A)p.r(C)p.r(C)p.r(C)p.r(C)p.r(U)p.r(U)p.r(U)p.r(T)p.r(T)}|RNA2{r(A)p.r(A)p.r(A)p.r(G)p.r(G)p.r(G)p.r(G)p.[fl2r](U)p.r(A)p.r(G)p.r(G)p.r(A)p.r(C)p.r(G)p.r(U)p.r(G)p.r(A)p.r(A)p.r(C)p.r(T)p.r(T)}$$$RNA1{StrandType:ss}|RNA2{StrandType:as}$”, the target mRNA knockdown came out at 69%.
